Measured values: patent EP0358177A1, “Medicine with a synergistic antimycosic and antiviral activity” (HOECHST AKTIENGESELLSCHAFT, priority 1988, dated 1990)
≈ marks a conversion by molar mass, not a printed value. Read-outs that look alike come from different tables or passages of the source.

Columns and labels:
Assay type in all cases: cell-based
C. albicans = assay: Minimal inhibitory concentration (MHK), microdilution test in Neopepton Dextrose Bouillon; conditions: Candida albicans, read-out: MHK
Excerpt: (§1) Die minimale Hemmkonzentration (MHK), das heißt, diejenige Konzentration bei der das Wachstum der Pilze noch makroskopisch sichtbar gehemmt ist, wurde im Mitrkoverdünnungstest (Mikrodilutiontest in Neopepton Dextrose Boullion, siehe: "Comparison of two different techniques in primary micrological screening": Standard serial dilution test and microtitration test; W. Raether, M. Uphoff und G. Staut, mycosen, 27 (1984), p. 15 - 28) geprüft. Das Inokulum pro Weil betrug bei Candida albicans 10^3 cfu/ml und bei Microsporum canis 1,6 10^5 cfu/ml (cfu = colony forming units).
(§2) Zunächst wurde die minimale Hemmkonzentration eines jeden Kombinationspartners (Ciclopiroxolamin bzw. Nigericin oder Nigericinderivat) allein festgestellt (Cyclopyoxolamin: 2 u.g/ml; Nigericin und alle Nigericinderivate: >128 u.g/ml). Anschließend wurde die MHK für Ciclopiroxolamin in Anwesenheit von jeweils 64 µg/ml, 16 u.g/ml und 1 µg/ml eines Nigericinderivats geprüft, um festzustellen inwieweit der Zusatz des Nigericinderivats die Wirkung von Ciclopiroxolamin verstärken konnte.

M. canis = assay: as above; conditions: Microsporum canis, read-out: MHK
Excerpt: as §1, §2

[1] = tested on: Microsporum Canis und Candida albicans; assay: Minimal inhibitory concentration (MHK), microdilution test, text statements not separated by test strain; conditions: each combination partner alone; test strain not specified; read-out: minimale Hemmkonzentration eines jeden Kombinationspartners allein
Excerpt: as §1, §2

Row | SMILES | MIC (C. albicans) [mg/L] | MIC (M. canis) [mg/L] | MIC (C. albicans; C. albicans, substance alone) [mg/L] | MIC (M. canis; M. canis, substance alone) [mg/L] | MIC [1] [mg/L]
1 | COC1CC(CC2CCC(C)C(C(C)C(=O)O)O2)OC2(OC(C)(C3CCC(C)(C4OC(C5OC(O)(COC(=O)CCC(=O)O)C(C)CC5C)CC4C)O3)CC2C)C1C (stereo not shown) [Beispiel 17] | 128 (≈ 155 µM) | 128 (≈ 155 µM) | – | – | –
2 | COC1CC(CC2CCC(C)C(C(C)C(=O)O)O2)OC2(OC(C)(C3CCC(C)(C4OC(C5OC(O)(COC(=O)c6ccccc6)C(C)CC5C)CC4C)O3)CC2C)C1C (stereo not shown) [Beispiel 18] | 128 (≈ 154 µM) | 128 (≈ 154 µM) | – | – | –
3 | COC1CC(CC2CCC(C)C(C(C)C(=O)O)O2)OC2(OC(C)(C3CCC(C)(C4OC(C5OC(O)(COC(=O)Cc6ccccc6)C(C)CC5C)CC4C)O3)CC2C)C1C (stereo not shown) [Beispiel 19] | – | – | 128 (≈ 152 µM) | 128 (≈ 152 µM) | –
4 | COC1CC(CC2CCC(C)C(C(C)C(=O)O)O2)OC2(OC(C)(C3CCC(C)(C4OC(C5OC(O)(COC(=O)CCOc6ccccc6)C(C)CC5C)CC4C)O3)CC2C)C1C (stereo not shown) [Beispiel 20] | 128 (≈ 147 µM) | 128 (≈ 147 µM) | – | – | –
5 | Cc1cc(C2CCCCC2)n(O)c(=O)c1 [Ciclopiroxolamin, Ethanolamin des 6-Cyclohexyl-1-Hydroxy-4-methyl-2(1H)-Pyridons, reference compound] | – | – | 2 (≈ 9.65 µM) | 2 (≈ 9.65 µM) | 2
6 | CO[C@@H]1C[C@@H](C[C@H]2CC[C@H](C)[C@H]([C@@H](C)C(=O)O)O2)O[C@]2(O[C@](C)([C@H]3CC[C@@](C)([C@@H]4O[C@@H]([C@H]5O[C@@](O)(CO)[C@H](C)C[C@@H]5C)C[C@@H]4C)O3)C[C@H]2C)[C@@H]1C [Nigericin, reference compound] | – | – | 128 (≈ 177 µM) | 128 (≈ 177 µM) | –
